Entries after “also recorded” stand apart in the source; their conditions may differ. Like-named read-outs stand apart in the source and are kept apart here.
Tests used:
[1] = system: modified drosophila ecdysone receptor (VdEcR); format: cell-based
Method: (§1) Transient transfection experiments in CV-1 cells or 293 cells using modified drosophila ecdysone receptor (VdEcR) or modified bombyx hormone receptor (VbR) with or without dimer partners as described. Luc activity is examined 40 hours after transfection and stimulation with ligand (FIG. 2A). Both receptors are assayed in CV-1 cells with 1 μM MurA and no exogenous dimer partner. […] Both receptors are also assayed in the presence of 5 μg/ml tebufenozide (FIG. 2B). […] Both receptors are also assayed with and without dimer partners. VbR was stimulated with 5 μg/ml tebufenozide and VdEcR was stimulated with 1 μM MurA. […] VbR, with no exogenous dimer partner, has an extremely low base-line which is stimulated 200-300 fold by ligand. Note also from this experiment that VdEcR tends to have a much higher baseline than VbR without dimer partner.
(§2) Transient transfections are performed by calcium-phosphate coprecipitation employing standard methods (see Sambrook et al., in Molecular Cloning: A Laboratory Manual. Cold Spring Harbor Press, New York, N.Y. (1989)). All tissue culture experiments are performed using DMEM 10% FBS in a 10% CO2 incubator unless otherwise specified. […] After 40 additional hours of incubation, cells are harvested and luciferase activity measured in an analytical bioluminescence photometer. […]

[2] = system: modified bombyx hormone receptor (VbR); format: cell-based, bombyx mori
Method: as §1
(§3) Tebufenozide is administered to cells co-transfected with nucleic acids encoding receptors: LINX (which encodes the tet-transactivator (TTA)), VbR, TTMT (which encodes the TTA-VbR fusion protein, and TTMT-2V which is like TTMT, but with two VP16 t-domains), to assay for EcRELuc activity (FIG. 2C). Note that teb stimulates VbR, and the TTMT fusions, but has no action on TTA (LINX). The same experiment as that described for 2C, only with a TetO-Luc reporter which responds only to TTA or fusion proteins is summarized in FIG. 2D. […] Note that in this experiment, TTMT and TTMT-2V work better than TTA only (LINX) to stimulate the TetO-luc promoter/reporter. […] An experiment on CV-1 cells transfected with TTMT and two reporters: 6TetO-luc and 4-EcRE-bgalactosidase show both promoters could be simultaneously influenced by the presence or absence of both ligands (FIG. 2E).
Transient transfections are performed by calcium-phosphate coprecipitation employing standard methods (see Sambrook et al., in Molecular Cloning: A Laboratory Manual. Cold Spring Harbor Press, New York, N.Y. (1989)). All tissue culture experiments are performed using DMEM 10% FBS in a 10% CO2 incubator unless otherwise specified. All transfections are performed in triplicate in 24-well Costar plates using CV-1 cells at an approximately 5×10^4 plating density. Immediately following transfection, 1 μm ligand in 20% EtOH/PBS is added to wells. After 40 additional hours of incubation, cells are harvested and luciferase activity measured in an analytical bioluminescence photometer. Cell extracts are simultaneously examined for LacZ activity of the internal control by standard methods. Bar graph levels represent relative luciferase activity after correction using internal control values.

[3] = system: TTMT-2V (TTMT with two VP16 t-domains); test: EcRE-Luc reporter co-transfected with TTMT-2V; format: cell-based; conditions: FIG. 2C
Method: as §3, §2

VbR = test: Transgene regulation in stably infected rat fibroblasts (MARSHA reporter, VbR retroviral vector); format: cell-based, bombyx mori; conditions: 0.25 μg/ml teb vs higher levels; VbR-luc clonal fibroblast line and VbR-GH clonal line, FIG. 3; listed as teb
[4] = system: mammals and other non-insect species; conditions: extensive testing in animal hosts; previously reported; cited from earlier work
tet-transactivator (TTA) = target: T1, tet-transactivator (TTA) (Escherichia coli, UniProt P04483); test: EcRE-Luc reporter co-transfected with LINX; format: cell-based; conditions: FIG. 2C
T1 construct: expressed in transfected cells; host or cells: CV-1 cells
Method: as §3, §2

[5] = system: TTMT (TTA-VbR fusion protein); test: EcRE-Luc reporter co-transfected with TTMT; format: cell-based; conditions: FIG. 2C
Method: as §3, §2

T1 sequence (P04483 whole entry, added parts left off): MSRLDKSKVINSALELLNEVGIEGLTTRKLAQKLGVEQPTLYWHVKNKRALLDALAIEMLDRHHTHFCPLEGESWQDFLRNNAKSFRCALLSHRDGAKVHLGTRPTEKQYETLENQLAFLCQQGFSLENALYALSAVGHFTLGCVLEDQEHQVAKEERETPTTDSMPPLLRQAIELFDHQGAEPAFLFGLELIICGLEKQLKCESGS

## CC(C)CC[C@@H](O)[C@](C)(O)[C@H]1CC[C@@]2(O)C3=CC(=O)[C@]4(O)C[C@@H](O)[C@@H](O)C[C@]4(C)[C@H]3[C@H](O)C[C@]12C [MurA, muristerone A]
[1]; 1 μM MurA, with and without dimer partners
  dimer partner requirement for VdEcR stimulation: RXR and Usp are necessary for VdEcR
[2]; 1 μM MurA
  stimulation of VbR, side-by side comparison: effective at stimulating VbR
[2]; CV-1 cells, 1 μM MurA, no exogenous dimer partner
  response of bR (Luc activity): responds

## CCc1ccc(C(=O)NN(C(=O)c2cc(C)cc(C)c2)C(C)(C)C)cc1 [tebufenozide]
[3]
  EcRE-Luc activity with TTMT-2V: stimulates
[1]; 5 μg/ml tebufenozide
  response of drosophila EcR (Luc activity): does not respond at all, and in fact, decreases slightly; also recorded: responds weakly, if at all
VbR
  stimulation of full transgene activity, dose comparison: as effective at stimulating full activity as higher levels; also recorded: as effective as higher levels for stimulating full activity
[4]
  toxicity to mammals: very low toxicity
tet-transactivator (TTA)
  EcRE-Luc activity with TTA (LINX): no action
[5]
  EcRE-Luc activity with TTMT: stimulates
[2]; 2.5 μg/ml teb
  stimulation of VbR, side-by side comparison: effective at stimulating VbR
[2]; 5 μg/ml tebufenozide, VbR with no exogenous dimer partner, experiment with and without dimer partners
  stimulation of VbR over base-line by ligand: 200-300 fold
[2]; 5 μg/ml tebufenozide, exogenous dimer partner (RXR, Usp) present, VbR constitutively activated
  effect of ligand on VbR in the presence of exogenous dimer partner: inhibited by ligand addition
[2]; 5 μg/ml tebufenozide, no exogenous dimer partner, 40 hours after transfection
  induction of Luc activity by VbR: greater than 200 fold
[2]; EcRE-Luc reporter, FIG. 2C
  EcRE-Luc activity with VbR: stimulates
